Results from US20220193209A1, “COMPOSITIONS AND METHODS FOR REACTIVATING LATENT IMMUNODEFICIENCY VIRUS AND/OR TREATING IMMUNODEFICIENCY VIRUS INFECTION” (The J. David Gladstone institutes, a testamentary trust …, priority 2019, published 2022).

What was measured:
[1] = test system: latent HIV in CD4+ T cells from HIV-infected patients; experiment: Cell-associated HIV RNA by ddPCR in CD4+ T cells of HIV-infected patients on antiretroviral therapy, ex vivo; format: cell-based; conditions: 100 and 1000 nM, 3 days, five patients
Method: Cells were treated ex vivo with two concentrations of AS1842856 (100 and 1000 nM), prostratin (250 nM) or combinations thereof for 3 days, and HIV RNA induction was measured by digital droplet PCR (ddPCR).

FOXO1 = target: T1, FOXO1 (Homo sapiens, UniProt Q12778); experiment: Cellular Thermal Shift Assay (CETSA) in K562 cells, FOXO1; format: binding; conditions: 1 μM
T1 construct: performed against the FOXO isoforms expressed in K562 cells; endogenous in cells; host or cells: K562
Method: K562 cells (ATCC) were maintained in appropriate volume of RPMI medium supplemented with 10% fetal bovine serum (Serum Plus—II, Sigma MO, USA), 100 units/mL penicillin and 100 […] (Corning, VA, USA). Short-term passages (<15) were used for all experiments. For CETSA, K562 cell were freshly seeded the day before the experiment. The day of experiment, equal numbers of cells were counted by Moxi Mini automated cell counter (Orflo) and 0.6×10^6 cells per data point were seeded in T-25 cell culture flasks (VWR, PA, USA) in appropriate volume of culture medium. Cells were exposed to […] AS1842856 or equal volume DMSO for 3 hours in an incubator with 5% CO2 and 37° C. […] The supernatants were transferred to new microcentrifuge tubes and analyzed by SDS-PAGE followed by immunoblotting analysis. […] Immunoblotting results were subjected to densitometric analysis (Image J) and melting temperatures of FOXO1, FOXO3 and FOXO4 were determined by Prism 7 (GraphPad) using nonlinear least-squares regression fit to Y=100/(1+10^(Log IC50−X)*H), where H=Hill slope (variable). The viability of the cells was assessed in triplicate by trypan blue exclusion. […]
Briefly, K562 cells were treated with increasing concentrations of the FOXO1 inhibitor AS1842856 just after HIVGKO infection. After 3-4 days, the percentage of latent cells and productive cells were quantified by FACS. […]

K562 cells = experiment: Cell viability of HIVGKO-infected K562 cells; format: cell-based; conditions: K562, increasing concentrations
Method: Briefly, K562 cells were treated with increasing concentrations of the FOXO1 inhibitor AS1842856 just after HIVGKO infection. After 3-4 days, the percentage of latent cells and productive cells were quantified by FACS. In left panel, amount of productive or latent cells relative to the total infection rate (bars) and cell viability (dots). In the right panel, ratios of productive versus latent populations upon increasing concentrations of AS1842856 treatments. Data are represented as mean f SD of triplicate values, representative of three independent experiments. FIG. 1, Panel B depicts FOXO1, FOXO3 and FOXO4 CETSA-melting curve shifts upon the presence or absence of AS1842856 1000 nM in K562 cells. Band intensities obtained from western blot analysis were related to the highest western blot signal which has been set to 100%. Relative FOXO-band intensities were plotted against corresponding incubation temperatures and a nonlinear least-squares regression fit was applied. Data represent the mean±SD of three individual experiments. FIG. 1, Panel C depicts the efficiency of FOXO1, FOXO3 and FOXO4 knockdowns with two different sgRNAs checked by western blot. Cells transduced with NC (negative control) sgRNA lentiviruses were used as a control. […]

T1 sequence (Q12778 whole entry, canonical isoform): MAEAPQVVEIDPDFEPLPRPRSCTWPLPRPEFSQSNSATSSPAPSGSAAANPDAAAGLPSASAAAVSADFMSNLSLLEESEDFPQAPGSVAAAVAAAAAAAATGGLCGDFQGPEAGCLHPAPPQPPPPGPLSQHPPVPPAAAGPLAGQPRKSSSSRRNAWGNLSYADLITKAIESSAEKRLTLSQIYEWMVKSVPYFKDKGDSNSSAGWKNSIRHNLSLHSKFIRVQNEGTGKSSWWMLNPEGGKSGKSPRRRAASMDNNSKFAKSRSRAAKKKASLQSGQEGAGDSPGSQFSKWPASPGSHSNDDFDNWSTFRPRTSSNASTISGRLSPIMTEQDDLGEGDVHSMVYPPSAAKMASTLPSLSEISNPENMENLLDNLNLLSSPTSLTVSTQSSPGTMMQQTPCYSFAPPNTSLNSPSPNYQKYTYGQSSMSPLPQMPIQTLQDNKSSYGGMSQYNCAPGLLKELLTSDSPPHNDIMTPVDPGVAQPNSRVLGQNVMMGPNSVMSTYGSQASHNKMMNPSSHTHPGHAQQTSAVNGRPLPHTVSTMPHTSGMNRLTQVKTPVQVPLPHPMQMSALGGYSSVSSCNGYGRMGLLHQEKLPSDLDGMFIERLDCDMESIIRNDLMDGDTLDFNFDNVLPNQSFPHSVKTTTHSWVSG
Method for primary CD4+ T cells: Cell viability was measured with CellTiter-Blue Cell Viability Assay (Promega).
Histogram plot of percent live cells for each drug treatment relative to the control are shown (right side —right panel). Data are represented by mean±SD of four different donors.

Q: How did the “HIV RNA induction” value [1] turn out when `CCn1cc(C(=O)O)c(=O)c2c(N)c(F)c(NC3CCCCC3)cc21` [AS1842856, 5-amino-7-(cyclohexylamino)-1-ethyl-6-fluoro-4-oxo-1,4-dihydro-quinoline-3-carboxylic acid] was run?
A: The value was “two-fold”.

Q: What about the “shift in FOXO1 melting curve” value (FOXO1) of the same molecule?
A: The value was 7.23 °C.

Q: What about the viability (K562 cells) of the same molecule?
A: Its viability is “no significant changes”.

Q: And the “primary T-cell viability” value (primary CD4+ T cells)?
A: Its value is “No changes”.
